Assay: Safety in the clinical study of metoclopramide nasal spray
Assay type: in vivo, human
Conditions: 10 mg or 14 mg IN four times daily, four weeks
Experimental: The objectives of this study were to evaluate the safety and the effectiveness of two doses of metoclopramide nasal spray solution, 10 mg and 14 mg, compared to placebo in reducing the symptoms of diabetic gastroparesis and to assess the plasma concentrations of two doses of metoclopramide nasal spray in subjects with diabetic gastroparesis following a single dose and at steady state. The aforementioned dosages for the treatment and control of gastroparesis were administered before meals and/or before bed time. Subjects who met the entry criteria after the Washout Period (Day −7 to Day −1) were randomized using an IVRS, to metoclopramide nasal spray 10 mg, 14 mg, or placebo, in roughly equal numbers (approximately 1:1:1) using a predetermined randomization schedule employing permuted blocks. Randomization was preformed centrally.
The study consisted of up to a 23-day Screening Period, a 7-day Washout Period (Day −7 to Day −1) followed by four weeks of study drug treatment. The total duration of each subject's participation was approximately 8 weeks, 287 subjects were enrolled in the study and were randomized to the following groups: Placebo (n=95), 10 mg intranasal (n=96) and 14 mg intranasal (n=96). Of those subjects enrolled, a total of 259 completed the study (˜90%).

With `CCN(CC)CCNC(=O)c1cc(Cl)c(N)cc1OC` [metoclopramide, -amino-5-chloro-N-(2-(diethylamino)ethyl)-2-methoxybenzamide] the Dose-limiting toxicities was “no dose-limiting toxicities” and the “Reports of tardive dyskinesia” value was “no reports of tardive dyskinesia”.
